Measured values published in patent US6388080B1, “Polymorphic forms of 6-[4-(1-cyclohexyl-1H-tetrazol-5-yl)butoxy]-3,4-dihydro-2(1H)-quinolinone” (priority 2001, dated 2002).

Experiments:
bioavailability = format: in vivo; conditions: Form A as prepared by the procedures of the '479 patent
[1] = aqueous solubility of cilostazol polymorphic forms; format: physicochemical; conditions: for solubility relative to Form A: suggested by lower melting point than Form A in DSC thermogram (FIG. 8)
[2] = DSC of disturbed sample: solid state phase transformation to Form A; format: physicochemical; conditions: sample disturbed (scratching/stressed), DSC heating from 30° C. to approximately 200° C. at 10° C. per minute; followed by melt of Form A at about 160° C.
Excerpt: Characterization of Form A of cilostazol, Form B of cilostazol, and Form C of cilostazol was further completed using DSC thermograms, shown in FIGS. 3, 4, and 5, respectively, with DSC thermograms for combinations of Form A and Form B; Form B and Form C; and Forms A, B, and C are shown in FIGS. 6, 7, and 8 respectively. DSC data were generated using a Mettler-Toledo DSC 821^e(Columbus, Ohio) with a Julabo FT900 intercooler chiller (Julabo Company; Allentown, Pa.). In general, samples were analyzed in a vented, sealed aluminum pan. Because the endothermic peak may vary depending upon the rate of heating and the calibration and precision of the instrument, with the amount of peak variation dependent upon the heating rate used, all thermograms included herein were run under the same, consistent conditions: heating at 10° C. per minute under a nitrogen purge at 40 mL/minute. The resultant sample of Example 1A was disturbed with scratching, which caused the cilostazol sample to undergo a solid state phase transformation at approximately 119° C. followed by an endotherm of melt at approximately 160° C. (Form A) during heating by DSC from 30° C. to approximately 200° C. at 10° C. per minute. When the sample is stressed and reheated (as detailed in Example 2A), the sample undergoes a solid state phase transformation at approximately 147° C. followed by an endotherm of melt at about 160° C. […]

[3] = stability of the polymorphic form; format: physicochemical

Compound	bioavailability (bioavailability)	aqueous solubility ([1]; Form A as prepared by the procedures of the '479 patent)	solid state phase transformation temperature [2]	stability of the form [3]	solubility relative to Form A [1]
O=C1CCc2cc(OCCCCc3nnnn3C3CCCCC3)ccc2N1 [Form A, 6-[4-(1-cyclohexyl-1H-tetrazol-5-yl)butoxy]-3,4-dihydro-2(1H)-quinolinone]	low	low	–	–	–
O=C1CCc2cc(OCCCCc3nnnn3C3CCCCC3)ccc2N1 [Form B, 6-[4-(1-cyclohexyl-1H-tetrazol-5-yl)butoxy]-3,4-dihydro-2(1H)-quinolinone]	–	–	approximately 119 °C	stable	more soluble than Form A
O=C1CCc2cc(OCCCCc3nnnn3C3CCCCC3)ccc2N1 [Form C, 6-[4-(1-cyclohexyl-1H-tetrazol-5-yl)butoxy]-3,4-dihydro-2(1H)-quinolinone]	–	–	approximately 147 °C	stable	more soluble than Form A
